The supplement of paper PMC10307832

Legend:
Assay in all cases: relative viability (nuclei count vs DMSO), 5 days (fraction); higher = more cells survive
BI-D1870 + AZD7762 = compound: CC(C)CCN1c2nc(Nc3cc(F)c(O)c(F)c3)ncc2N(C)C(=O)C1C [BI-D1870] + NC(=O)Nc1cc(-c2cccc(F)c2)sc1C(=O)N[C@H]1CCCNC1 [AZD7762] (partner 0.2 µM)
Method in brief: (§1)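 Relative viability is defined as nuclei in treated wells over nuclei in vehicle wells. Duplicate plates were run and medians reported. Lung cancer cell lines in 1536-well plates were dosed by pin tool one day after seeding, with one drug or with a fixed anchor-drug dose plus five library-drug doses (not always all listed) in √10 steps, and nuclei were counted after 5 days.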

Zebularine + Phenformin = compound: O=c1ncccn1[C@@H]1O[C@H](CO)[C@@H](O)[C@H]1O [Zebularine] + N=C(N)NC(=N)NCCc1ccccc1 [Phenformin] (partner 250 µM)
Method in brief: as §1

BI-D1870 + Tozasertib = compound: CC(C)CCN1c2nc(Nc3cc(F)c(O)c(F)c3)ncc2N(C)C(=O)C1C [BI-D1870] + Cc1cc(Nc2cc(N3CCN(C)CC3)nc(Sc3ccc(NC(=O)C4CC4)cc3)n2)n[nH]1 [Tozasertib] (partner 0.1 µM)
Method in brief: as §1

BI-D1870 + Pemetrexed = compound: CC(C)CCN1c2nc(Nc3cc(F)c(O)c(F)c3)ncc2N(C)C(=O)C1C [BI-D1870] + Nc1nc2[nH]cc(CCc3ccc(C(=O)N[C@@H](CCC(=O)O)C(=O)O)cc3)c2c(=O)[nH]1 [Pemetrexed] (partner 0.2 µM)
Method in brief: as §1

Cell Line | relative viability (BI-D1870 + AZD7762; first compound 0.04 µM) | relative viability (BI-D1870 + AZD7762; first compound 0.1265 µM) | relative viability (BI-D1870 + AZD7762; first compound 0.4 µM) | relative viability (BI-D1870 + AZD7762; first compound 1.265 µM) | relative viability (BI-D1870 + AZD7762; first compound 4 µM) | relative viability (Zebularine + Phenformin; first compound 1 µM) | relative viability (Zebularine + Phenformin; first compound 3.162 µM) | relative viability (Zebularine + Phenformin; first compound 10 µM) | relative viability (Zebularine + Phenformin; first compound 31.62 µM) | relative viability (Zebularine + Phenformin; first compound 100 µM) | relative viability (BI-D1870 + Tozasertib; first compound 0.04 µM) | relative viability (BI-D1870 + Tozasertib; first compound 0.1265 µM) | relative viability (BI-D1870 + Tozasertib; first compound 0.4 µM) | relative viability (BI-D1870 + Tozasertib; first compound 1.265 µM) | relative viability (BI-D1870 + Tozasertib; first compound 4 µM) | relative viability (BI-D1870 + Pemetrexed; first compound 0.04 µM) | relative viability (BI-D1870 + Pemetrexed; first compound 0.1265 µM) | relative viability (BI-D1870 + Pemetrexed; first compound 0.4 µM) | relative viability (BI-D1870 + Pemetrexed; first compound 1.265 µM) | relative viability (BI-D1870 + Pemetrexed; first compound 4 µM)
NCI-H1437 | 1.09 | 1.06 | 1.12 | 1.1 | 1.06 | 0.333 | 0.311 | 0.229 | 0.328 | 0.376 | 0.432 | 0.382 | 0.377 | 0.387 | 0.363 | 0.335 | 0.303 | 0.323 | 0.355 | 0.338
NCI-H1651 | 0.511 | 0.491 | 0.395 | 0.465 | 0.403 | 0.347 | 0.401 | 0.273 | 0.369 | 0.256 | 0.9 | 0.487 | 0.784 | 0.647 | 0.344 | 0.566 | 0.561 | 0.547 | 0.629 | 0.54
NCI-H1666 | 0.934 | 0.868 | 0.778 | 0.995 | 0.812 | 0.594 | 0.551 | 0.531 | 0.591 | 0.495 | 0.673 | 0.569 | 0.584 | 0.569 | 0.537 | 0.857 | 0.835 | 0.895 | 0.812 | 0.779
NCI-H1734 | 0.635 | 0.494 | 0.608 | 0.72 | 0.593 | 0.444 | 0.363 | 0.26 | 0.282 | 0.24 | 0.249 | 0.263 | 0.288 | 0.256 | 0.22 | 0.403 | 0.4 | 0.416 | 0.412 | 0.347
NCI-H1755 | 0.417 | 0.412 | 0.407 | 0.486 | 0.404 | 0.671 | 0.612 | 0.592 | 0.684 | 0.53 | 0.59 | 0.551 | 0.518 | 0.513 | 0.531 | 0.497 | 0.469 | 0.408 | 0.465 | 0.408
NCI-H1793 | 0.74 | 0.411 | 0.296 | 0.417 | 0.504 | 0.4 | 0.39 |  | 0.237 | 0.168 | 0.376 | 0.246 | 0.207 | 0.275 | 0.226 | 1.14 | 0.737 | 0.869 | 1.03 | 0.686
NCI-H1915 | 0.706 | 0.636 | 0.665 | 0.7 | 0.616 | 0.373 | 0.381 |  | 0.379 | 0.349 | 0.466 | 0.395 | 0.389 | 0.427 | 0.313 | 0.473 | 0.489 | 0.458 | 0.419 | 0.381
NCI-H1944 | 0.624 | 0.433 | 0.514 | 0.685 | 0.546 | 0.226 | 0.188 | 0.174 | 0.19 | 0.146 | 0.293 | 0.233 | 0.25 | 0.262 | 0.235 | 0.899 | 0.603 | 0.599 | 0.631 | 0.552
NCI-H1975 | 0.791 | 0.611 | 0.721 | 0.732 | 0.653 | 0.416 | 0.417 | 0.229 | 0.221 | 0.148 | 0.79 | 0.509 | 0.223 | 0.176 | 0.145 | 0.299 | 0.272 | 0.292 | 0.305 | 0.238
NCI-H1993 | 0.878 | 0.682 | 1.03 | 0.988 | 0.471 | 0.556 | 0.477 | 0.534 | 0.449 | 0.548 | 0.606 | 0.602 | 0.58 | 0.566 | 0.612 | 0.646 | 0.605 | 0.582 | 0.594 | 0.475
NCI-H2085 | 1.06 | 0.972 | 0.927 | 0.97 | 0.771 | 0.761 | 0.663 | 0.566 | 0.673 | 0.539 | 0.816 | 0.735 | 0.544 | 0.547 | 0.401 | 0.924 | 0.802 | 0.887 | 0.881 | 0.603
NCI-H2087 | 1.41 | 1.4 | 1.37 | 1.45 | 1.41 | 0.524 | 0.448 | 0.272 | 0.385 | 0.352 | 0.217 | 0.212 | 0.203 | 0.215 | 0.142 | 0.697 | 0.671 | 0.75 | 0.71 | 0.703
NCI-H2126 | 1.02 | 1.02 | 0.95 | 1.05 | 0.991 | 0.579 | 0.473 | 0.445 | 0.494 | 0.435 | 0.899 | 0.794 | 0.78 | 0.722 | 0.538 | 0.694 | 0.726 | 0.649 | 0.744 | 0.552
NCI-H2170 | 0.977 | 0.882 | 0.844 | 0.923 | 0.654 | 0.422 | 0.424 | 0.376 | 0.41 | 0.243 | 0.701 | 0.715 | 0.713 | 0.648 | 0.574 | 0.299 | 0.269 | 0.261 | 0.249 | 0.403
NCI-H2342 | 0.493 | 0.609 | 0.392 | 0.803 | 0.667 | 0.635 | 0.528 | 0.49 | 0.73 | 0.59 | 0.491 | 0.374 | 0.538 | 0.481 | 0.515 | 0.759 | 0.768 | 0.764 | 0.81 | 0.816
NCI-H2347 | 0.811 | 0.768 | 0.798 | 0.933 | 0.822 | 0.583 | 0.38 | 0.297 | 0.233 | 0.293 | 0.635 | 0.501 | 0.595 | 0.516 | 0.335 | 0.515 | 0.443 | 0.427 | 0.438 | 0.393
